This data set can be described thus: Human HepG2 cell viability assay in 384 well format. It counts as toxicity, cell-based. Also noted: dose 125 nL, time 70.5 hour; concentration not given beside the values. The conditions noted are these: HepG2 cells, read-out: Inhibition.
As for `CCCc1cc(C(=O)N2Cc3cnc(C(C)(C)C)nc3C2)ccn1`, the cytotoxicity at 70.5 h was 0.0745%.

For `CNc1ncccc1CN1CCN(c2cc(NC3CC3)nc(N)n2)CC1`, the cytotoxicity at 70.5 h came out at 0.197%.

For `COc1ccccc1Oc1ncccc1CNC(=O)CN1CCCC1=O`, the cytotoxicity at 70.5 h is -4.31%.

Consider `OCc1ccc(-c2nccn2CCc2nc3c(s2)CCCC3)o1`, for which the cytotoxicity at 70.5 h came out at 9.89%.

`CCCc1nnc(N2CCC(N3CCCCCC3)CC2)o1`: the cytotoxicity at 70.5 h is -15.8%.

Regarding `CC(C)Oc1cc(N2CCCC(O)C2)nc(N)n1` (stereo unspecified), the cytotoxicity at 70.5 h was found to be 7.95%.

With `O=C1NC2(CCN(CCc3ccccc3)CC2)CC1c1ccccc1` (stereo unspecified), the cytotoxicity at 70.5 h was -8.33%.

Turning to `CCCc1nnc(N(C)CC2CCN(CC(C)C)CC2)o1`, the cytotoxicity at 70.5 h was -7.76%.

Turning to `COc1ccc(C(=O)NC2CC2)c(OC2CCN(C3CCC3)CC2)c1`, the cytotoxicity at 70.5 h was -3.47%.

`Cc1nccc(N[C@H]2CN(C(=O)C3(C#N)CCOCC3)C[C@@H]2C(C)C)n1`: the cytotoxicity at 70.5 h was determined as 12%.

Regarding `COc1ccc(CCC2CCCN(CC(=O)O)C2)cc1` (stereo unspecified), the cytotoxicity at 70.5 h is -6.84%.

Consider `CC1CN(CC(=O)NCCc2ccncc2)Cc2ccccc2O1` (stereo unspecified), for which the cytotoxicity at 70.5 h was -7.7%.

For `CC(=O)N1C[C@@H]2CC[C@H](C1)N(S(=O)(=O)c1cc(F)ccc1C)C2`, the cytotoxicity at 70.5 h was -10.6%.

Regarding `CC[C@@]1(O)CCN(C(=O)CCNC(=O)c2ccc(F)cc2)C[C@H]1O`, the cytotoxicity at 70.5 h is -5.99%.

In the case of `Cc1ccc2[nH]c(CN(C)Cc3ccccc3C(=O)O)nc2c1`, the cytotoxicity at 70.5 h was -7.29%.

Turning to `Nc1nc(NCCc2[nH]nc3c2CCCC3)cc(N2CCOCC2)n1`, the cytotoxicity at 70.5 h is -6.18%.

Regarding `CC(C)[C@@H]1CN(c2ccc(C(F)(F)F)cn2)C[C@H]1NS(C)(=O)=O`, the cytotoxicity at 70.5 h stood at 21.5%.

Take `CCN1CCC(N2C[C@H]3OC(=O)N(CCc4cccc(Cl)c4)[C@H]3C2)CC1`: the cytotoxicity at 70.5 h is -0.155%.

Regarding `c1cc(-c2cncnc2)cc(-c2ccn(CC3CCNC3)n2)c1` (stereo unspecified), the cytotoxicity at 70.5 h was -15.7%.

As to `CC/C(C)=C/CCN1CCN(C)C2(CCNC(=O)CC2)C1` (stereo unspecified), the cytotoxicity at 70.5 h is -6.34%.

With `c1ccc(-c2cc(CN3C[C@H]4CC[C@H]3C4)on2)cc1`, the cytotoxicity at 70.5 h was -4.67%.

As to `CSc1ccc(-c2nc(CN3CCCC(CNC(C)=O)C3)c(C)o2)cc1` (stereo unspecified), the cytotoxicity at 70.5 h was -3.75%.

On to `Cc1ccn2c(F)c(C(=O)N3CCC4(CCCN(C)C4=O)C3)nc2c1` (stereo unspecified), for which the cytotoxicity at 70.5 h is -8.44%.

Turning to `CCOc1ccc(CCCC(=O)N2CCC(C(=O)NC)C2)cc1C` (stereo unspecified), the cytotoxicity at 70.5 h is -8.84%.

Turning to `Cc1cc(C)cc(CN2CCN(C(=O)COCC3CCCO3)CC2=O)c1` (stereo unspecified), the cytotoxicity at 70.5 h was -5.03%.

As for `Cn1nnnc1SCCNC(=O)C1CCN(C(=O)C2CC2)CC1`, the cytotoxicity at 70.5 h was found to be 24.5%.

Take `CC(NC(=O)c1cn(CCC2CCCCC2)nn1)c1cnn(C)c1` (stereo unspecified): the cytotoxicity at 70.5 h worked out at 20.4%.

Regarding `COc1cc(Cc2nc3c([nH]2)CC(C)(C)CNC3=O)cc(OC)c1`, the cytotoxicity at 70.5 h turned out to be 8.47%.

For the molecule `CC(C(=O)N1CCn2cncc2C1)N1C[C@@H](C)O[C@@H](C)C1` (stereo partly specified), the cytotoxicity at 70.5 h came to 0.983%.

For the molecule `Cc1cc(C(=O)NCc2cccnc2N2CCCC(O)C2)[nH]n1` (stereo unspecified), the cytotoxicity at 70.5 h is -16.1%.

Regarding `O=C(CSc1ccccc1)N1C[C@H]2CC[C@@H]1CN(Cc1ccncc1)C2`, the cytotoxicity at 70.5 h is -4.9%.

On to `CCSc1ncc(CN(Cc2cnn(C)c2)CC(C)C)cn1`, for which the cytotoxicity at 70.5 h was -4.66%.

Turning to `Cc1cc(C(F)(F)F)cc(N2C[C@@H](CN(C)CCO)[C@@H](CO)C2)n1`, the cytotoxicity at 70.5 h was 2.18%.

Consider `COC(=O)c1cc(C)nc(N2CCN(Cc3ccn(C(C)C)c3)CC2)n1`, for which the cytotoxicity at 70.5 h is -18.7%.

On to `Cc1ocnc1C(=O)N1CCN(CCOc2ccccc2)CC1`, for which the cytotoxicity at 70.5 h was -10.4%.

With `Cc1ccccc1[C@@H]1CN(Cc2nc3ncccn3n2)C[C@H]1C(=O)O`, the cytotoxicity at 70.5 h stood at 3.89%.

Regarding `CN(C)S(=O)(=O)N1C[C@@H]2CC[C@H](C1)N(Cc1ccc(F)c(F)c1)C2`, the cytotoxicity at 70.5 h came out at 4.72%.

On to `CCN(Cc1nccn1C)C(=O)c1ccc(NCC(C)C)nc1`, for which the cytotoxicity at 70.5 h is -6.64%.

As for `CC(C)c1nnc2sc(CC3CN(C(C)C)CCO3)nn12` (stereo unspecified), the cytotoxicity at 70.5 h is -7.69%.

With `COc1ccc(F)cc1CN1CCCn2nc(CNS(C)(=O)=O)cc2C1`, the cytotoxicity at 70.5 h is -5.04%.

As to `Cc1noc(C)c1CNC(=O)c1cn(CCC2CCCCN2)nn1` (stereo unspecified), the cytotoxicity at 70.5 h was -0.767%.

`COC(=O)CNC(=O)C1(N(C)Cc2ccccc2)Cc2ccccc2C1`: the cytotoxicity at 70.5 h is -8.63%.

Turning to `COc1cccc(CN2CCC(O)(c3ccc(C)cn3)CC2)c1OC`, the cytotoxicity at 70.5 h came to 4.46%.

As for `COc1cc(F)ccc1-c1cnc(N)cn1`, the cytotoxicity at 70.5 h is -13.6%.

Consider `CCn1c(CN(C)C)nnc1C1CCN(Cc2ccncc2)CC1`, for which the cytotoxicity at 70.5 h was -6.3%.

With `O=C(NCCc1cccs1)C1(N2CCCCC2)Cc2ccccc2C1`, the cytotoxicity at 70.5 h is -7.46%.

As to `Nc1nc2c(c(NCC(c3cccnc3)N3CCOCC3)n1)CCNC2` (stereo unspecified), the cytotoxicity at 70.5 h was -10.5%.

`CCn1nc(C)c(CN2CCC(c3ccc(C(=O)O)cc3)C2)c1C` (stereo unspecified): the cytotoxicity at 70.5 h is -2.74%.

For the molecule `Cc1c(CNCC(C)Oc2cccnc2)c2ccccc2n1CC(N)=O` (stereo unspecified), the cytotoxicity at 70.5 h worked out at 2.14%.

In the case of `Cc1nc(Cn2c(=O)cnc3ccccc32)n(C)n1`, the cytotoxicity at 70.5 h was -24.2%.

`Cn1c(Cn2ccnc2)nnc1C1CCN(C(=O)c2ccncc2)CC1`: the cytotoxicity at 70.5 h is -5.75%.

`Cc1nc(CCN)cc(N2CCC(O)(c3ccccc3)C2)n1` (stereo unspecified): the cytotoxicity at 70.5 h was -4.16%.

In the case of `CC(C)=CCCN1CCN(C)C2(CCC(=O)N(C)CC2)C1` (stereo unspecified), the cytotoxicity at 70.5 h is -6.95%.

With `Cc1ccc(C)c(CN2CCCn3nc(CNS(C)(=O)=O)cc3C2)c1`, the cytotoxicity at 70.5 h is 15.4%.

As to `CCN1CC(C(=O)NCc2cccc(SC)c2)CC1=O` (stereo unspecified), the cytotoxicity at 70.5 h was 18%.

As for `CCCn1cc(NC(=O)c2cccc(CN3CC=CC3)c2)nn1`, the cytotoxicity at 70.5 h amounted to 45.4%.

Take `CN1C(=O)C2(CCCN(C(=O)c3cccnc3O)C2)c2ccccc21` (stereo unspecified): the cytotoxicity at 70.5 h was determined as 21%.

In the case of `CC(C)c1noc(Cn2ncc3ccccc3c2=O)n1`, the cytotoxicity at 70.5 h was -7.17%.

For the molecule `Cc1ccc(CN2CCN(C(=O)CCc3nc(Cl)n[nH]3)CC2=O)cc1`, the cytotoxicity at 70.5 h is -14.2%.

Turning to `CC(=O)N[C@@H]1C[C@H](Cc2ccccc2)O[C@H](c2ccc(C(=O)O)cc2)C1`, the cytotoxicity at 70.5 h is -6.19%.

Regarding `O=C(N[C@@H]1CCNC[C@H]1O)c1ccc(F)c(F)c1`, the cytotoxicity at 70.5 h is -5.14%.

For the molecule `CCc1ccc2nc(C)cc(C(=O)NCc3csc(N(C)C)n3)c2c1`, the cytotoxicity at 70.5 h turned out to be 16.3%.

Take `C=C(C)COc1ccccc1CNCCc1cc(O)nc(C)n1`: the cytotoxicity at 70.5 h is -2.32%.

Consider `Cc1nc(CC(=O)N2CCCC(N(C)Cc3ccccc3)C2)cs1` (stereo unspecified), for which the cytotoxicity at 70.5 h was found to be 1.48%.

As to `COc1ccc(Oc2ncccc2C(N)=O)cc1CN1CCCC1`, the cytotoxicity at 70.5 h is -7.33%.

Regarding `CC[C@@]1(O)CCN(c2ncc(Cl)cc2C(F)(F)F)C[C@H]1O`, the cytotoxicity at 70.5 h turned out to be 20.8%.

`O=C1O[C@@H]2CN(C3CCOCC3)C[C@@H]2N1CCc1cccc(Cl)c1`: the cytotoxicity at 70.5 h is -1.7%.

Take `CCCN1CCC(CC(=O)NCc2cc(C)nn2C)CC1`: the cytotoxicity at 70.5 h is -7.34%.

As for `CC1(C)CNC(=O)c2nc(C3CCCN(S(C)(=O)=O)C3)[nH]c2C1` (stereo unspecified), the cytotoxicity at 70.5 h was -6.33%.

Regarding `COCCC1(C(=O)O)CCCN(c2cc(C)c3ccccc3n2)C1` (stereo unspecified), the cytotoxicity at 70.5 h is -8.76%.

Regarding `Cc1ccccc1[C@@H]1CN(Cc2c(C)noc2C)C[C@H]1C(=O)O`, the cytotoxicity at 70.5 h was 21.7%.

As for `COCCN(C)C[C@H]1C[C@H](CO)CN(C(=O)c2ccn(C)c(=O)c2)C1`, the cytotoxicity at 70.5 h was -9.68%.

Turning to `CCCc1cc(C(=O)N(C)Cc2cccc3cnccc23)n(C)n1`, the cytotoxicity at 70.5 h was -2.24%.

On to `Cc1nc(CN)cc(N2CCC(O)(c3ccc(Cl)cc3)CC2)n1`, for which the cytotoxicity at 70.5 h is -1.91%.

`Cc1noc(C)c1CN1C[C@@H](NC(=O)N(C)C)[C@H](C(C)C)C1`: the cytotoxicity at 70.5 h is -6.75%.

Regarding `COC(=O)[C@@H]1CCCN1C(=O)c1cn(CCCc2ccccc2)nn1`, the cytotoxicity at 70.5 h was -19.4%.

`COc1cccc(CN2CCN(C(=O)Nc3nc(C)ns3)CC2=O)c1`: the cytotoxicity at 70.5 h was -0.713%.

For `Cc1nc(N(C)Cc2cccc(O)c2)nc2cc(S(C)(=O)=O)ccc12`, the cytotoxicity at 70.5 h is -7.8%.

Regarding `CC(C)c1cc(CN(C)C(=O)C(C)N2CCc3ccccc3C2)no1` (stereo unspecified), the cytotoxicity at 70.5 h was 34.4%.

In the case of `CC(C)C1CN(c2nccc(N)n2)CCC(=O)N1Cc1ccc(F)cc1` (stereo unspecified), the cytotoxicity at 70.5 h was -8.72%.

As for `Oc1cc(CN2CCCCC2c2cccnc2)nc2c(F)cccc12` (stereo unspecified), the cytotoxicity at 70.5 h is -2.95%.

As to `CC(C)(C)c1ccc(OCc2nc3c(c(=O)[nH]2)CCNC3)cc1`, the cytotoxicity at 70.5 h is -7.79%.

Consider `CCC(CO)NC(=O)c1cc(COc2ccc(OC)cc2Cl)[nH]n1` (stereo unspecified), for which the cytotoxicity at 70.5 h was -10.5%.

Consider `COc1ccc(OC)c2c(C)cc(N(C)CCO)nc12`, for which the cytotoxicity at 70.5 h stood at 16.9%.

On to `CCC(C)N(Cc1cnc(OC)nc1)Cc1ccsc1` (stereo unspecified), for which the cytotoxicity at 70.5 h was -3.9%.

As for `Clc1cc(N2CCC(N3CCCC3)CC2)nc2[nH]ccc12`, the cytotoxicity at 70.5 h is -2.57%.

As to `CC(C)C1=NOC(c2nc(-c3cccc(Cl)c3)no2)C1` (stereo unspecified), the cytotoxicity at 70.5 h is 8.08%.

Consider `COc1cccc(C(=O)N2CCc3c(nc(N)[nH]c3=O)C2)c1C`, for which the cytotoxicity at 70.5 h was found to be 1.02%.

Consider `Cn1cc(Cl)c(C(=O)N2CCC(N3CCc4ccccc4C3)CC2)n1`, for which the cytotoxicity at 70.5 h is -6.46%.

With `CCN1CCCC(C)(C(=O)NCc2nncn2CCc2ccccc2)C1` (stereo unspecified), the cytotoxicity at 70.5 h is -8.53%.

Take `NC1(C(=O)N2CCC(c3cc(-c4ccccc4Cl)n[nH]3)CC2)CCC1`: the cytotoxicity at 70.5 h worked out at 46.9%.

For `COc1ccc2cc(C3CN(C(=O)CCNC(C)=O)CCO3)ccc2c1` (stereo unspecified), the cytotoxicity at 70.5 h turned out to be 2.84%.

Turning to `COc1cccc2c1OCC(C(=O)N(Cc1ccncc1)CC(C)C)C2` (stereo unspecified), the cytotoxicity at 70.5 h was 15.1%.

For the molecule `c1ccc(CN2CCCC(CNc3ncnc4c3CCNCC4)C2)cc1` (stereo unspecified), the cytotoxicity at 70.5 h was -6.09%.

For `CCCc1nc(N(C)CCc2noc(C(C)C)n2)c2cnn(C)c2n1`, the cytotoxicity at 70.5 h was 5.48%.

Regarding `CC(C)C(=O)N1CCC(CNc2nc(C(C)C)nc3c2cnn3C)CC1`, the cytotoxicity at 70.5 h is -9.27%.

For the origin of these results see ChEMBL document CHEMBL3507680, “University of Dundee, Gates Library screen for HepG2 cell viability”.
